Data from the NIST ThermoML archive (doi:10.1021/je034048e).
± gives the expanded uncertainty stated by the source.

Experiment: molar heat capacity at constant pressure
Details: 101.33 kPa

CCCCCCCC/C=C/CCCCCCCC(=O)OCC(COC(=O)CCCCCCC/C=C/CCCCCCCC)OC(=O)CCCCCCC/C=C/CCCCCCCC [trielaidin]
molar heat capacity at constant pressure [J/K/mol], Small (less than 1 g) adiabatic calorimetry
Details | Crystal | Metastable crystal
70 K | – | 486.99 ± 8.9
72.01 K | – | 500.27 ± 11
74.71 K | – | 516.21 ± 11
75 K | 504.7 ± 8.9 | 522.4 ± 8.9
77.43 K | – | 531.26 ± 11
80 K | 531.26 ± 8.9 | 548.97 ± 8.9
80.16 K | – | 548.08 ± 12
82.91 K | – | 563.13 ± 12
85 K | 557.82 ± 8.9 | 575.53 ± 8.9
85.67 K | – | 580.84 ± 12
88.45 K | – | 595.01 ± 12
90 K | 584.39 ± 8.9 | 602.09 ± 8.9
91.24 K | – | 610.06 ± 12
94.03 K | – | 625.12 ± 12
95 K | 610.95 ± 18 | 628.66 ± 18
96.84 K | – | 639.28 ± 13
99.66 K | – | 654.33 ± 13
100 K | 637.51 ± 18 | 655.22 ± 18
100.5 K | – | 656.99 ± 13
103.85 K | – | 678.24 ± 14
105 K | 655.22 ± 18 | 681.78 ± 18
106.65 K | – | 689.75 ± 14
109.51 K | – | 701.26 ± 14
110 K | 672.93 ± 18 | 708.35 ± 18
112.39 K | – | 714.54 ± 14
115.27 K | – | 726.94 ± 15
118.14 K | – | 740.22 ± 15
120 K | 717.2 ± 18 | 752.62 ± 18
121.03 K | – | 753.5 ± 15
123.91 K | – | 765.9 ± 16
126.79 K | – | 778.29 ± 16
129.68 K | – | 792.46 ± 16
130 K | 761.47 ± 18 | 796.89 ± 18
132.57 K | – | 805.74 ± 16
135.47 K | – | 812.83 ± 17
138.36 K | – | 826.99 ± 17
140 K | 788.03 ± 18 | 832.31 ± 18
141.26 K | – | 842.93 ± 17
144.16 K | – | 850.01 ± 17
147.07 K | – | 864.18 ± 18
149.97 K | – | 875.69 ± 18
150 K | 823.45 ± 18 | 876.58 ± 18
152.88 K | – | 887.2 ± 18
155.78 K | – | 906.68 ± 19

Crystal
Details | molar heat capacity at constant pressure [J/K/mol]
70.3 K | 473.71 ± 9.7
72.97 K | 489.64 ± 11
75.67 K | 503.81 ± 11
78.39 K | 521.52 ± 12
81.12 K | 535.69 ± 12
83.86 K | 550.74 ± 12
86.62 K | 565.79 ± 12
89.39 K | 580.84 ± 12
92.18 K | 595.01 ± 12
95.56 K | 609.18 ± 12
99.01 K | 629.54 ± 13
104.65 K | 654.33 ± 13
107.48 K | 666.73 ± 14
110.32 K | 677.36 ± 14
113.16 K | 689.75 ± 14
116 K | 701.26 ± 15
118.85 K | 713.66 ± 15
121.7 K | 725.17 ± 15
124.56 K | 734.02 ± 15
127.41 K | 742.88 ± 16
130.27 K | 758.82 ± 16
133.13 K | 766.78 ± 16
135.99 K | 775.64 ± 16
138.85 K | 786.26 ± 17
141.71 K | 796 ± 17
144.57 K | 804.86 ± 17
147.42 K | 815.48 ± 17
150.23 K | 826.99 ± 18
153.02 K | 837.62 ± 18
155.77 K | 850.01 ± 18
